{"source": "patent US6518317B1", "about": "“Antiviral agents” (priority 1997, dated 2003)", "key": {"[1]": {"system": "carcinogenesis caused by a two-stage carcinogenesis on skin", "assay": "Two-stage (DMBA/TPA) carcinogenesis on skin of mice", "type": "in vivo, mice of ICR strain", "conditions": "2.5 mg per mouse", "description": "Hair on the back of mice of ICR strain (purchased from Nippon SLC; seven weeks age; female) was shaved and DMBA (dimethylbenzanthracene) as an initiator in a form of a solution in acetone was applied thereto at the dose of 50 μg/mouse.\nThus, FIG. 5 is a graph showing the anti-carcinogenic action of the cyclopentenone in which ordinate is a carcinogenic rate while abscissa is time (weeks). In the graph, open triangles, black triangles and open circles stand for a group treated with 2.5 mg of the cyclopentenone per mouse (12 mice in total), a group treated with 0.8 mg of the cyclopentenone per mouse (11 mice in total) and a control group (12 mice in total), respectively."}, "[2]": {"system": "adenovirus type 5 (Adenoid 75; ATCC VR-5)", "assay": "Adenovirus hexon protein in HeLa cells, cyclopentenone before and after infection", "type": "cell-based", "conditions": "10 μM or more", "description": "(5) HeLa cells were incubated by the same manner as in Example 2-(2) and treated with the cyclopentenone. After that, the cells were infected by the adenovirus type 5 (Adenoid 75; ATCC VR-5) by the same manner as in Example 2-(4) and incubated in a medium to which the cyclopentenone was added. After the incubation, detection of the hexon proteins of adenovirus was conducted by the same manner as in Example 2-(2)."}, "[3]": {"assay": "Anti-inflammatory test of TPA in conchae of mice", "type": "in vivo", "conditions": "2.5 mg (per mouse) applied to concha of the mouse"}, "[4]": {"system": "adenovirus of type 5 (Adenoid 75; ATCC VR-5)", "assay": "Adenovirus hexon protein in HeLa cells, cyclopentenone added after infection", "type": "cell-based", "conditions": "10 μM or more, 20 hours", "description": "(4) After HeLa cells were incubated by the same manner as in Example 2-(2), DMEM containing 5% of fetal bovine serum which contained adenovirus of type 5 (Adenoid 75; ATCC VR-5) was added to the cells without addition of the cyclopentenone whereby the cells were infected by that. […] After the incubation, detection of hexon proteins of adenovirus was conducted by the same manner as in Example 2-(2)."}, "[5]": {"system": "adenovirus type 5 (Adenoid 75; ATCC VR-5)", "assay": "Amount of viral DNA in HeLa cells, cyclopentenone before and after infection", "type": "cell-based", "conditions": "5 μM or more", "description": "(6) Amount of the viral DNA was measured by the same manner as in Example 2-(3) from the HeLa cells which were treated with the cyclopentenone infected by the adenovirus type 5 (Adenoid 75; ATCC VR-5) followed by incubating by the same manner as in Example 2-(5)."}, "NIH3T3/Y-1": {"system": "NIH3T3/Y-1", "assay": "Colony formation of control-vector cell strain NIH3T3/Y-1", "conditions": "5 μM, nine days, NIH3T3/Y-1, three runs"}, "[6]": {"assay": "Single oral administration toxicity in rats", "type": "in vivo", "conditions": "single oral administration of 100 mg/kg"}, "HIV-1IIIB [7]": {"system": "HIV-1IIIB", "assay": "p24 antigen in supernatant liquid of CEM-3B culture", "type": "cell-based", "conditions": "three days", "description": "(§1) The cyclopentenone (1-5 μM) was added to CEM-SS cells infected by HIV-1IIIB (abbreviated as CEM-3B) or to H9 cells infected by HIV-1IIIB (abbreviated as H9-3B) and incubated for three days. In both cells, 90% or more of the cells were infected by HIV-1IIIB. Numbers of living and dead cells were counted and the survival rate of the cells was calculated therefrom.\n(§2) Concentration of the p24 antigen contained in the supernatant liquid of the culture after incubation for three days in the case of Example 5-(2) was measured. The result was that the concentration of p24 decreased corresponding to the centration of the cyclopentenone added thereto whereupon the anti-HIV action was noted. In Table 10, the figures in parentheses are the ratio of each of the supernatant liquid of the cell cultures (when none of the cyclopentenone was added) to the concentration of p24 expressed in terms of %."}, "[8]": {"system": "H9 cells infected by HIV-1IIIB (H9-3B)", "assay": "Survival rate of HIV-infected T cells, H9-3B", "type": "cell-based, human", "conditions": "three days", "description": "as §1\n(§3) Thus, FIG. 3 and FIG. 4 are the graphs showing the relation between the concentration of the cyclopentenone added and the survival rate of the cells in which abscissa is the concentration (μM) of the cyclopentenone added While ordinate is the survival rate (%) of the cells after incubating for three days. FIG. 3 is the result when CEM-3B were used while FIG. 4 is the result when H9-3B were used."}, "[9]": {"system": "70 kd heat shock proteins", "assay": "Expression of 70 kd heat shock proteins in HeLa cells (SDS-PAGE and blotting)", "type": "cell-based", "design": "key: +++: the sign “+” shows the potency of signals of the 70 kd heat shock proteins observed in the blotting the more the numbers of +, the more potent the signals; ++: the sign “+” shows the potency of signals of the 70 kd heat shock proteins observed in the blotting the more the numbers of +, the more potent the signals; the sign “+” shows the potency of signals of the 70 kd heat shock proteins observed in the blotting the more the numbers of +, the more potent the signals; The sign “±” means that the signal was very weak", "conditions": "six hours", "description": "The medium was discarded, 1 ml of 10% trichloroacetic acid was added to each of the wells and the cells were recovered by a scraper.\nThe cells prepared as such were subjected to an SDS-PAGE and a blotting according to a method of Example 1 to detect the expression of 70 kd heat shock proteins.\nAs a result, induction of the 70 kd heat shock proteins noted in the sections to which the cyclopentenone of from 5 μM to 40 μM was added. […] The sign “±” means that the signal was very weak."}, "HIV-1IIIB [10]": {"system": "HIV-1IIIB", "assay": "p24 antigen in supernatant liquid of H9-3B culture", "type": "cell-based", "conditions": "three days", "description": "as §1, §2"}, "[11]": {"system": "CEM-SS cells infected by HIV-1IIIB (CEM-3B)", "assay": "Survival rate of HIV-infected T cells, CEM-3B", "type": "cell-based, human", "conditions": "three days", "description": "as §1, §3"}}, "data": [{"smiles": "O=C1C=CC(O)C1O", "note": "(stereo not shown) [cyclopentenone, 4,5-dihydroxy-2-cyclopenten-1-one]", "values": [{"measurement": "carcinogenic rate", "setting": "[1]; applied one hour before each TPA, within 15 weeks (1 mouse out of 12)", "value": 8.3, "unit": "%"}, {"measurement": "carcinogenic rate", "setting": "[1]; within and after 19 weeks (3 mice out of 12)", "value": 25, "unit": "%"}, {"measurement": "amount of the hexon proteins compared with the control", "setting": "[2]", "value": "apparent decrease"}, {"measurement": "anti-inflammatory activity", "setting": "[3]", "value": "no anti-inflammatory activity"}, {"measurement": "amount of hexon proteins compared with the control", "setting": "[4]", "value": "apparent decrease"}, {"measurement": "amount of the viral DNA compared with the control", "setting": "[5]", "value": "apparent decrease"}, {"measurement": "Numbers (average ± SD) of the Colonies", "setting": "NIH3T3/Y-1", "value": "71.3 ± 2.3"}, {"measurement": "dead cases", "setting": "[6]", "value": "no dead case"}, {"measurement": "Concentration of p24 in Supernatant Liquid of the cell cultures", "setting": "HIV-1IIIB [7]; 1 μM", "value": 232, "unit": "ng/mL"}, {"measurement": "ratio to the concentration of p24 when none of the cyclopentenone was added", "setting": "HIV-1IIIB [7]; 1 μM", "value": 83, "unit": "%"}, {"measurement": "Concentration of p24 in Supernatant Liquid of the cell cultures", "setting": "HIV-1IIIB [7]; 3 μM", "value": 176, "unit": "ng/mL"}, {"measurement": "ratio to the concentration of p24 when none of the cyclopentenone was added", "setting": "HIV-1IIIB [7]; 3 μM", "value": 63, "unit": "%"}, {"measurement": "Concentration of p24 in Supernatant Liquid of the cell cultures", "setting": "HIV-1IIIB [7]; 5 μM", "value": 175, "unit": "ng/mL"}, {"measurement": "ratio to the concentration of p24 when none of the cyclopentenone was added", "setting": "HIV-1IIIB [7]; 5 μM", "value": 63, "unit": "%"}, {"measurement": "survival rate of the cells", "setting": "[8]; 3 μM", "value": "significantly decreased"}, {"measurement": "survival rate of the cells", "setting": "[8]; 5 μM", "value": "further decreased"}, {"measurement": "Amount of 70 kd of Heat Shock Proteins", "setting": "[9]; 5 μM", "value": "+"}, {"measurement": "Amount of 70 kd of Heat Shock Proteins", "setting": "[9]; 10 μM", "value": "++"}, {"measurement": "Amount of 70 kd of Heat Shock Proteins", "setting": "[9]; 20 μM", "value": "+++"}, {"measurement": "Amount of 70 kd of Heat Shock Proteins", "setting": "[9]; 40 μM", "value": "+++"}, {"measurement": "Concentration of p24 in Supernatant Liquid of the cell cultures", "setting": "HIV-1IIIB [10]; 1 μM", "value": 203, "unit": "ng/mL"}, {"measurement": "ratio to the concentration of p24 when none of the cyclopentenone was added", "setting": "HIV-1IIIB [10]; 1 μM", "value": 97, "unit": "%"}, {"measurement": "Concentration of p24 in Supernatant Liquid of the cell cultures", "setting": "HIV-1IIIB [10]; 3 μM", "value": 157, "unit": "ng/mL"}, {"measurement": "ratio to the concentration of p24 when none of the cyclopentenone was added", "setting": "HIV-1IIIB [10]; 3 μM", "value": 75, "unit": "%"}, {"measurement": "Concentration of p24 in Supernatant Liquid of the cell cultures", "setting": "HIV-1IIIB [10]; 5 μM", "value": 148, "unit": "ng/mL"}, {"measurement": "ratio to the concentration of p24 when none of the cyclopentenone was added", "setting": "HIV-1IIIB [10]; 5 μM", "value": 70, "unit": "%"}, {"measurement": "survival rate of the cells", "setting": "[11]; 3 μM", "value": "significantly decreased"}, {"measurement": "survival rate of the cells", "setting": "[11]; 5 μM", "value": "further decreased"}]}]}
